Measured values: BindingDB's records for doi:10.1021/jm00160a056 (1986)

Target: Trifunctional purine biosynthetic protein adenosine-3 (Mus musculus) (UniProt Q64737)
Experiment: Compound was evaluated for the inhibition of GAR transformylase isolated from murine lymphoma cell line L5178Y

Sequence of Trifunctional purine biosynthetic protein adenosine-3 (Mus musculus) (Q64737 whole entry, looked up): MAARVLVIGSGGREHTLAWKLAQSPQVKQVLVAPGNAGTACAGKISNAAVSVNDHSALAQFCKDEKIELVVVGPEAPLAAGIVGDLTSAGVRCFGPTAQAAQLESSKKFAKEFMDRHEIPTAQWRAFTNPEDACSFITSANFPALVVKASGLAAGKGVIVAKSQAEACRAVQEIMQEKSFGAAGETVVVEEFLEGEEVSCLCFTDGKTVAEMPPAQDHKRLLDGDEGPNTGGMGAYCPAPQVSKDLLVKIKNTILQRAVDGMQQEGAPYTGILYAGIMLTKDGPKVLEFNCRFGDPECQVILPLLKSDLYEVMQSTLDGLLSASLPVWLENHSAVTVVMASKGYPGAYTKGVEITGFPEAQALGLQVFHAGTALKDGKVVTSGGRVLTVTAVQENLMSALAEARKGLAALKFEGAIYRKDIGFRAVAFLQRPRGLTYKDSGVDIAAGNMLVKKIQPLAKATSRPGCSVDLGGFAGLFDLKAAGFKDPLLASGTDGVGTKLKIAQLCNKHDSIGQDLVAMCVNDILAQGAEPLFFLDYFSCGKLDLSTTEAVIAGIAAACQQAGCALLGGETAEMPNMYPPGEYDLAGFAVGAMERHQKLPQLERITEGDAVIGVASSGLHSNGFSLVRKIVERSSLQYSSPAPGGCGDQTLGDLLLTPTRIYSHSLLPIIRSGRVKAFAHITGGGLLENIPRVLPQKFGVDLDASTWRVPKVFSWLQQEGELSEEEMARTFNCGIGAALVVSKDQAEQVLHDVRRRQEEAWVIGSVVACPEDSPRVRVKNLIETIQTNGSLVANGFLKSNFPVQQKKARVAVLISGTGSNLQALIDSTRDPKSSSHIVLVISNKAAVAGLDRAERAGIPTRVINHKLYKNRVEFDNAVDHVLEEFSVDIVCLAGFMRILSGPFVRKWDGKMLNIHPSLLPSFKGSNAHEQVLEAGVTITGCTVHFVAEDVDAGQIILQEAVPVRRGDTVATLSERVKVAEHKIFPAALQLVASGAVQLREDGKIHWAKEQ

SMILES	Ki
Nc1nc2ccc(CNc3ccc(C(=O)NC(CCC(=O)O)C(=O)O)cc3)cc2c(=O)[nH]1 (configuration not stated)	2 µM
CC(=O)N(Cc1ccc2nc(N)[nH]c(=O)c2c1)c1ccc(C(=O)NC(CCC(=O)O)C(=O)O)cc1 (configuration not stated) [2-{4-[Acetyl-(2-amino-4-oxo-3,4-dihydro-quinazolin-6-ylmethyl)-amino]-benzoylamino}-pentanedioic acid]	1.3 µM
